Data reported in the supplement of paper PMC10307832.

What was measured:
Assay in all cases: relative viability (nuclei count vs DMSO), 5 days (fraction); higher = more cells survive
Nelarabine + Phenformin = compound: COc1nc(N)nc2c1ncn2[C@@H]1O[C@H](CO)[C@@H](O)[C@@H]1O [Nelarabine] + N=C(N)NC(=N)NCCc1ccccc1 [Phenformin] (partner 250 µM)
Outline: (§1)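 Values are medians from duplicate plates. Each reflects relative viability, defined as the nuclei count of treated wells over that of vehicle wells. Lung cancer cell lines in 1536-well plates were pin-tool dosed one day after seeding with one drug alone or with a fixed anchor-drug dose plus five library-drug doses (not always all listed) in √10 steps, then fixed, stained and imaged at 4× after 5 days.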

Adavosertib + AZD7762 = compound: C=CCn1c(=O)c2cnc(Nc3ccc(N4CCN(C)CC4)cc3)nc2n1-c1cccc(C(C)(C)O)n1 [Adavosertib] + NC(=O)Nc1cc(-c2cccc(F)c2)sc1C(=O)N[C@H]1CCCNC1 [AZD7762] (partner 0.2 µM)
Outline: as §1

Adavosertib + Tozasertib = compound: C=CCn1c(=O)c2cnc(Nc3ccc(N4CCN(C)CC4)cc3)nc2n1-c1cccc(C(C)(C)O)n1 [Adavosertib] + Cc1cc(Nc2cc(N3CCN(C)CC3)nc(Sc3ccc(NC(=O)C4CC4)cc3)n2)n[nH]1 [Tozasertib] (partner 0.1 µM)
Outline: as §1

Adavosertib + Pemetrexed = compound: C=CCn1c(=O)c2cnc(Nc3ccc(N4CCN(C)CC4)cc3)nc2n1-c1cccc(C(C)(C)O)n1 [Adavosertib] + Nc1nc2[nH]cc(CCc3ccc(C(=O)N[C@@H](CCC(=O)O)C(=O)O)cc3)c2c(=O)[nH]1 [Pemetrexed] (partner 0.2 µM)
Outline: as §1

Cell Line	relative viability (Nelarabine + Phenformin; first compound 0.01 µM)	relative viability (Nelarabine + Phenformin; first compound 0.03162 µM)	relative viability (Nelarabine + Phenformin; first compound 0.1 µM)	relative viability (Nelarabine + Phenformin; first compound 0.3162 µM)	relative viability (Nelarabine + Phenformin; first compound 1 µM)	relative viability (Adavosertib + AZD7762; first compound 0.01 µM)	relative viability (Adavosertib + AZD7762; first compound 0.03162 µM)	relative viability (Adavosertib + AZD7762; first compound 0.1 µM)	relative viability (Adavosertib + AZD7762; first compound 0.3162 µM)	relative viability (Adavosertib + Tozasertib; first compound 0.01 µM)	relative viability (Adavosertib + Tozasertib; first compound 0.03162 µM)	relative viability (Adavosertib + Tozasertib; first compound 0.1 µM)	relative viability (Adavosertib + Tozasertib; first compound 0.3162 µM)	relative viability (Adavosertib + Pemetrexed; first compound 0.01 µM)	relative viability (Adavosertib + Pemetrexed; first compound 0.03162 µM)	relative viability (Adavosertib + Pemetrexed; first compound 0.1 µM)	relative viability (Adavosertib + Pemetrexed; first compound 0.3162 µM)
A549	0.209	0.116	0.161	0.119	0.143												
NCI-H1648						0.549	0.532	0.533	0.414	0.545	0.613	0.386	0.545	0.595	0.719	0.814	0.483
NCI-H2009	0.555	0.518	0.479	0.532	0.47					0.787	0.749	1.05	0.749	1.03	0.987	1.04	0.775
SK-LU-1	0.564	0.364	0.553	0.679	0.499					0.371	0.321	0.302	0.174	1.03	0.967	0.812	0.536
ABC-1	0.216	0.212	0.258	0.231	0.229	0.87	0.706	0.623	0.802	0.208	0.161	0.166	0.145				
SW 1573	0.548	0.422	0.406	0.356	0.389					0.221	0.234	0.192	0.17	0.871	0.747	0.912	0.557
NCI-H2228	0.434	0.244		0.345	0.293					0.276	0.277	0.249	0.204		0.331	0.361	0.2
NCI-H727	0.604	0.589	0.642	0.508	0.682	0.636	0.406	0.445	0.394	0.674	0.504	0.546	0.641				
NCI-H1623	0.44	0.508	0.584	0.544	0.545					0.4	0.447	0.351	0.447				
NCI-H1563	0.707	0.665	0.63	0.73	0.665									0.677	0.903	0.713	0.808
COR-L23	0.525	0.385	0.356	0.416	0.448					0.24	0.236	0.23	0.162	0.203	0.198	0.204	0.165
COR-L 105	0.497	0.594	0.473	0.454	0.458					0.353	0.374	0.385	0.319	0.976	1.07	1.07	0.916
